Among the data in ChEMBL document CHEMBL1932947, “Emodin inhibits migration and invasion of DLD-1 (PRL-3) cells via inhibition of PRL-3 phosphatase activity” (Bioorg Med Chem Lett, 2012) are inhibition, Activity and IC50 values, retold here.

By inhibition is commonly meant the share of the control response that was lost under treatment. The term IC50 denotes the point on the concentration scale where inhibition reaches its midpoint. Higher therefore signals weaker potency in that assay.

The target of one series is Ezrin (Homo sapiens) (UniProt P15311). Description: Inhibition of ezrin phosphorylation in human DLD1 cells assessed as increase in alpha-ERM-Thr567 phosphorylation at 10 to 40 uM after 15 hrs by chemiluminescence method. It is filed as cell-based. The settings on record: DLD-1.
Series [1] addresses T1, Protein tyrosine phosphatase type IVA 3 (Homo sapiens, UniProt O75365). Put plainly: Inhibition of PRL-3-mediated cell migration in human DLD1 cells after 15 hrs by crystal violet staining based microscopic assay. Conditions: DLD-1.
The target of series [2] is T1, Protein tyrosine phosphatase type IVA 3. Put plainly: Inhibition of PRL-3-mediated cell invasion in human DLD1 cells after 20 hrs using crystal violet staining by Matrigel invasion assay. It counts as cell-based. The settings on record: DLD-1.
Series [3] has the same target. Put plainly: Inhibition of PRL3-mediated ezrin phosphorylation in human DLD1 cells assessed as increase in alpha-ERM-Thr567 phosphorylation at 10 to 40 uM after 15 hrs by chemiluminescence method relative to control. It is filed as cell-based. The settings on record: DLD-1.
For series [4] the target is unchanged. Description: Inhibition of PRL-3-mediated cell invasion in human DLD1 cells at 40 uM after 20 hrs using crystal violet staining by Matrigel invasion assay. It counts as cell-based. Conditions: DLD-1.
For series [5] the target is unchanged. Put plainly: Inhibition of PRL-3-mediated cell migration in human DLD1 cells at 40 uM after 15 hrs by crystal violet staining based microscopic assay. Conditions: DLD-1.
For a further series, the system named is DLD-1. Description: Cytotoxicity against human DLD1 cells expressing PRL-3 assessed as inhibition of cell proliferation up to 50 uM after 24 hrs by WST-1 assay. Conditions: dld-1, 24 h. It counts as cell-based. On the technique in general: Tetrazolium dyes change colour on reduction, which living cells bring about.
Series [6] concerns the target T1, Protein tyrosine phosphatase type IVA 3. Description: Inhibition of PRL3 after 1 hr by DiFMUP assay.

Active and inactive are the calls of the source. The calls are words filed in the database; no cut-off is given here.

T1 sequence (O75365 whole entry): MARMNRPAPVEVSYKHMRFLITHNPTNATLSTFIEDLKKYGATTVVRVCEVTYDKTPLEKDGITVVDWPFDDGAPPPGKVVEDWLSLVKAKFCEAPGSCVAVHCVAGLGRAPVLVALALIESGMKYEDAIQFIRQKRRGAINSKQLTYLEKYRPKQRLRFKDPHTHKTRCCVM
Chain of Ezrin (Homo sapiens) (P15311 whole entry): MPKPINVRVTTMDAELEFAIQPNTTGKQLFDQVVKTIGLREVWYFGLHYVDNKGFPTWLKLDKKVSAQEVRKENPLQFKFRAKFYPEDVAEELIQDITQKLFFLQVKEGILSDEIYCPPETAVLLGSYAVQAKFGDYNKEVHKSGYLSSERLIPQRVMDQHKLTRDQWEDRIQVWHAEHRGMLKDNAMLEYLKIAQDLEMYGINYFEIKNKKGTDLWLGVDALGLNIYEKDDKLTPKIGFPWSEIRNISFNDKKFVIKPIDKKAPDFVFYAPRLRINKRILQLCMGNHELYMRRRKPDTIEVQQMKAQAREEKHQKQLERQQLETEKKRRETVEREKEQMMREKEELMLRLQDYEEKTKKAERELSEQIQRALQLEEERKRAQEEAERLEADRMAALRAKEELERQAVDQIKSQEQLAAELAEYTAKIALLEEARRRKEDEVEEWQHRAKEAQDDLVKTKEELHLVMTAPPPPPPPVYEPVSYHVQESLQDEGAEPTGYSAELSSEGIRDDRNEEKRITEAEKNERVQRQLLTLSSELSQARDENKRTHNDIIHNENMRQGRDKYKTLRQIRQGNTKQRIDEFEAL

Take `Cc1cc(O)c2c(c1)C(=O)c1cc(O)cc(O)c1C2=O` [EMODIN]: the inhibition entry on Ezrin (Homo sapiens) was “inactive”. Further, the inhibition entry in series [1] was “Dose-dependent effect”; in series [2], “Dose-dependent effect”; in series [4], 70%; in series [5] it was above 80%; in series [6], “Dose-dependent effect”. Further, the inhibition entry in series [3] is “Active”. Besides, the Activity result with DLD-1 is “Non-toxic”. In series [6], this compound displayed an IC50 of 3.5 µM.
